Earlier results on five substances are cited in PMC3433420 (PLoS ONE, 2012).

Read-outs that look alike come from different tables or passages of the source.

As a reminder, the Kd is the equilibrium constant for the complex coming apart.

One data set concerns the target GRB7 SH2 domain (Homo sapiens, UniProt Q14451). Further details: 6X His; thioredoxin; made in house; host or cells: E. coli BL21(DE3)pLysS. As to conditions: Protein GRB7, most recent PM interactions, cited from earlier work.
A further data set concerns the target SH2 and PTB domains. The note with it: most recent PM interactions, cited from earlier work. From the text:
Supplement pone.0044471.s022.xlsx, sheet "Most recent PM interactions" | column: Kd || Supplement pone.0044471.s022.xlsx, sheet "All original PM interactions" | column: Kd

Setting [1] is: ref Jones et al. 2006 / Kaushansky et al. Chem and Biol 2008.
[2] abbreviates: Protein BLK, ref Jones et al. 2006 / Kaushansky et al. Chem and Biol 2008.
Setting [3] is: Protein SRC, ref Jones et al. 2006 / Kaushansky et al. Chem and Biol 2008.
Setting [4] is: Protein SYK-NC, ref Jones et al. 2006 / Kaushansky et al. Chem and Biol 2008.
Setting [5] is: Protein YES1, ref Jones et al. 2006 / Kaushansky et al. Chem and Biol 2008.

GRB7 SH2 domain, sequence (Q14451 431-527 limits assumed): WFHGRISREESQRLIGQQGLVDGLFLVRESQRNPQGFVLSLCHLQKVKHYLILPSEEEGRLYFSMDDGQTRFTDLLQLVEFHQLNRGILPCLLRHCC

Take EHKDNIGSQpYLLNWCVQd [ErbB1 813]: the Kd is 460 nM on GRB7 SH2 domain (ref Kaushansky et al. Mol Biosys 2008); 200 nM on SH2 and PTB domains (Protein ABL2, ref Kaushansky et al. Mol Biosys 2008); 350 nM at SH2 and PTB domains (Protein GRB10, ref Kaushansky et al. Mol Biosys 2008); 310 nM at SH2 and PTB domains (Protein ITK, ref Kaushansky et al. Mol Biosys 2008); 200 nM at SH2 and PTB domains (Protein NCK2, ref Kaushansky et al. Mol Biosys 2008); 1850 nM on SH2 and PTB domains (Protein PIK3R1-C, ref Kaushansky et al. Mol Biosys 2008). Further, the Kd on SH2 and PTB domains (Protein PIK3R1-NC, ref Kaushansky et al. Mol Biosys 2008) was 1820 nM; at SH2 and PTB domains (Protein PIK3R3-NC, ref Kaushansky et al. Mol Biosys 2008) it was 1870 nM; at SH2 and PTB domains (Protein RASA1-C, ref Kaushansky et al. Mol Biosys 2008), 1950 nM; on SH2 and PTB domains (Protein RASA1-NC, ref Kaushansky et al. Mol Biosys 2008) it was 160 nM; at SH2 and PTB domains (Protein SH2D1B, ref Kaushansky et al. Mol Biosys 2008), 1600 nM; at SH2 and PTB domains (Protein SH2D3C, ref Kaushansky et al. Mol Biosys 2008), 50 nM. For the same substance, the Kd on SH2 and PTB domains (Protein SHB, ref Kaushansky et al. Mol Biosys 2008) is 280 nM; on SH2 and PTB domains (Protein SHE, ref Kaushansky et al. Mol Biosys 2008), 1380 nM; at SH2 and PTB domains (Protein SHF, ref Kaushansky et al. Mol Biosys 2008) it was 1060 nM; on SH2 and PTB domains (Protein SRC, ref Kaushansky et al. Mol Biosys 2008), 80 nM; at SH2 and PTB domains (Protein SYK-NC, ref Kaushansky et al. Mol Biosys 2008) it was 240 nM; at SH2 and PTB domains (Protein TENC1, ref Kaushansky et al. Mol Biosys 2008) it was 1150 nM. In addition, the dissociation constant (Kd) is 1890 nM on SH2 and PTB domains (Protein TNS3, ref Kaushansky et al. Mol Biosys 2008); 370 nM at SH2 and PTB domains (Protein VAV1, ref Kaushansky et al. Mol Biosys 2008); 470 nM on SH2 and PTB domains (Protein VAV2, ref Kaushansky et al. Mol Biosys 2008); 960 nM at SH2 and PTB domains (Protein VAV3, ref Kaushansky et al. Mol Biosys 2008); 22 nM at SH2 and PTB domains (Protein YES1, ref Kaushansky et al. Mol Biosys 2008).

On to LPSPTDSNFpYRALMDEEd [ErbB1 998], for which the dissociation constant Kd on GRB7 SH2 domain (ref Jones et al. 2006 / Kaushansky et al. Mol Biosys 2008 / Kaushansky et al. Chem and Biol 2008) was 760 nM; on SH2 and PTB domains (Protein BLK, ref Jones et al. 2006 / Kaushansky et al. Mol Biosys 2008 / Kaushansky et al. Chem and Biol 2008), 190 nM; on SH2 and PTB domains (Protein FES, ref Jones et al. 2006 / Kaushansky et al. Mol Biosys 2008 / Kaushansky et al. Chem and Biol 2008), 1230 nM; at SH2 and PTB domains (Protein GRB10, ref Jones et al. 2006 / Kaushansky et al. Mol Biosys 2008 / Kaushansky et al. Chem and Biol 2008), 1690 nM; at SH2 and PTB domains (Protein ITK, ref Jones et al. 2006 / Kaushansky et al. Mol Biosys 2008 / Kaushansky et al. Chem and Biol 2008) it was 280 nM; at SH2 and PTB domains (Protein PIK3R1-NC, ref Jones et al. 2006 / Kaushansky et al. Mol Biosys 2008 / Kaushansky et al. Chem and Biol 2008) it was 240 nM. Further, the Kd was 970 nM on SH2 and PTB domains (Protein PIK3R3-NC, ref Jones et al. 2006 / Kaushansky et al. Mol Biosys 2008 / Kaushansky et al. Chem and Biol 2008); 1390 nM on SH2 and PTB domains (Protein PLCG2-NC, ref Jones et al. 2006 / Kaushansky et al. Mol Biosys 2008 / Kaushansky et al. Chem and Biol 2008); 710 nM on SH2 and PTB domains (Protein RASA1-N, ref Jones et al. 2006 / Kaushansky et al. Mol Biosys 2008 / Kaushansky et al. Chem and Biol 2008); 1650 nM on SH2 and PTB domains (Protein RASA1-NC, ref Jones et al. 2006 / Kaushansky et al. Mol Biosys 2008 / Kaushansky et al. Chem and Biol 2008); 1360 nM at SH2 and PTB domains (Protein SH2B3, ref Jones et al. 2006 / Kaushansky et al. Mol Biosys 2008 / Kaushansky et al. Chem and Biol 2008); 1150 nM on SH2 and PTB domains (Protein SHC1-PTB, ref Jones et al. 2006 / Kaushansky et al. Mol Biosys 2008 / Kaushansky et al. Chem and Biol 2008). Besides, the Kd is 980 nM at SH2 and PTB domains (Protein SHC2-PTB, ref Jones et al. 2006 / Kaushansky et al. Mol Biosys 2008 / Kaushansky et al. Chem and Biol 2008); 1140 nM on SH2 and PTB domains (Protein SRC, ref Jones et al. 2006 / Kaushansky et al. Mol Biosys 2008 / Kaushansky et al. Chem and Biol 2008); 910 nM on SH2 and PTB domains (Protein SYK-NC, ref Jones et al. 2006 / Kaushansky et al. Mol Biosys 2008 / Kaushansky et al. Chem and Biol 2008); 720 nM on SH2 and PTB domains (Protein YES1, ref Jones et al. 2006 / Kaushansky et al. Mol Biosys 2008 / Kaushansky et al. Chem and Biol 2008); 1650 nM at SH2 and PTB domains (Protein ZAP70-NC, ref Jones et al. 2006 / Kaushansky et al. Mol Biosys 2008 / Kaushansky et al. Chem and Biol 2008).

As to MGDLVDAEEpYLVPQQGF [ErbB2 1023], the dissociation constant Kd at GRB7 SH2 domain (setting [1]) was 1800 nM; on SH2 and PTB domains (setting [2]), 600 nM; at SH2 and PTB domains (Protein ITK, ref Jones et al. 2006 / Kaushansky et al. Chem and Biol 2008), 450 nM; at SH2 and PTB domains (Protein PIK3R1-NC, ref Jones et al. 2006 / Kaushansky et al. Chem and Biol 2008) it was 1640 nM; at SH2 and PTB domains (Protein PIK3R2-N, ref Jones et al. 2006 / Kaushansky et al. Chem and Biol 2008), 1950 nM; at SH2 and PTB domains (Protein PIK3R3-N, ref Jones et al. 2006 / Kaushansky et al. Chem and Biol 2008) it was 1930 nM. In addition, the dissociation constant (Kd) at SH2 and PTB domains (Protein PIK3R3-NC, ref Jones et al. 2006 / Kaushansky et al. Chem and Biol 2008) was 530 nM; on SH2 and PTB domains (Protein PLCG1-C, ref Jones et al. 2006 / Kaushansky et al. Chem and Biol 2008), 1460 nM; on SH2 and PTB domains (Protein RASA1-N, ref Jones et al. 2006 / Kaushansky et al. Chem and Biol 2008), 2000 nM; at SH2 and PTB domains (Protein RASA1-NC, ref Jones et al. 2006 / Kaushansky et al. Chem and Biol 2008), 1770 nM; on SH2 and PTB domains (setting [3]) it was 760 nM; on SH2 and PTB domains (Protein SUPT6H, ref Jones et al. 2006 / Kaushansky et al. Chem and Biol 2008), 910 nM. Further, the equilibrium dissociation constant (Kd) on SH2 and PTB domains (setting [4]) was 370 nM; on SH2 and PTB domains (setting [5]), 1170 nM.

As for RLLDIDETEpYHADGGKVd [ErbB2 877], the dissociation constant Kd was 1200 nM at GRB7 SH2 domain (ref Kaushansky et al. Chem and Biol 2008); 720 nM on SH2 and PTB domains (Protein BLK, ref Kaushansky et al. Chem and Biol 2008); 650 nM at SH2 and PTB domains (Protein PLCG2-N, ref Kaushansky et al. Chem and Biol 2008); 1100 nM at SH2 and PTB domains (Protein PLCG2-NC, ref Kaushansky et al. Chem and Biol 2008); 1400 nM at SH2 and PTB domains (Protein RASA1-NC, ref Kaushansky et al. Chem and Biol 2008); 1890 nM on SH2 and PTB domains (Protein YES1, ref Kaushansky et al. Chem and Biol 2008).

As to TEEEDEDEEpYEYMNRRR [ErbB3 1197], the equilibrium dissociation constant (Kd) on GRB7 SH2 domain (setting [1]) was 130 nM; at SH2 and PTB domains (Protein ABL1, ref Jones et al. 2006 / Kaushansky et al. Chem and Biol 2008) it was 1430 nM; on SH2 and PTB domains (Protein ABL2, ref Jones et al. 2006 / Kaushansky et al. Chem and Biol 2008) it was 1110 nM; on SH2 and PTB domains (setting [2]), 70 nM; on SH2 and PTB domains (Protein FGR, ref Jones et al. 2006 / Kaushansky et al. Chem and Biol 2008), 710 nM; at SH2 and PTB domains (Protein LYN, ref Jones et al. 2006 / Kaushansky et al. Chem and Biol 2008) it was 1070 nM. Moreover, the dissociation constant (Kd) at SH2 and PTB domains (setting [3]) was 870 nM; at SH2 and PTB domains (setting [4]), 890 nM; at SH2 and PTB domains (setting [5]) it was 130 nM.
